How the values were obtained:
Format in all cases: cell-based
[1] = tested on: A375 (malignant melanoma); test: MTT antiproliferative assay, A375; settings: Homo sapiens, A-375, A375, 10 μM, 48 or 72 h, read-out: inhibition of cell growth, A375
Protocol: (§1) The antiproliferative activity of a test compound was determined in cell lines: MDA-MB-231 (breast cancer), HepG2 (liver cancer), SW620 (colon cancer), A375 (malignant melanoma), A431 (epidermoid carcinoma), A549 (lung adenocarcinoma), and HeLa ([…]). MDA-MB-231, HepG2, SW480, SW620, A375, and A431 cells were cultured in Dulbecco's modified Eagle's medium (DMEM) containing 10% fetal bovine serum (FBS). HeLa cells were cultured in MEM/EBSS (MEM) containing 10% FBS. A549 cells were maintained in Kaighn's modification of Ham's F-12 medium containing 10% FBS. The colorimetric MTT (3-(4,5-dimethylthiazol-2-yl)-2,5-diphenyltetrazolium bromide) assay was used to measure the cell viability of different cells following treatment with the test compound.
(§2) Briefly cells were seeded in a 96 well plate at a density of 2,000-5,000 cells/well. Following attachment, the cells were treated with the test compound in media at various concentrations ranging from 0.137 to 100 μM or at a single concentration of 10 μM. After the cells were incubated at 37° C. for 48 or 72 h, MTT (20 μL, 5 mg/mL in PBS) was added to each well and the cells were incubated for another 4 h at 37° C. The supernatant was removed carefully and 150 μL of DMSO was added to each well to dissolve the MTT formazan crystals. The plate was shaken for 15-20 min and the absorbance value of each well was determined using a multi-well plate reader at 490 nm. The wells treated with DMSO were taken as a vehicle control. Data were also obtained similarly for all the replicates and the percentage viability was determined with respect to the DMSO-treated cells. The results are summarized in Table 1 below, wherein A represents no less than 80% inhibition of cell growth at 10 μM; B represents no less than 50% but less than 80% inhibition of cell growth at 10 μM; C represents no less than 30% but less than 50% inhibition of cell growth at 10 μM; and D represents less than 30% inhibition of cell growth at 10 μM.

[2] = tested on: A431 (epidermoid carcinoma); test: MTT antiproliferative assay, A431; settings: Homo sapiens, A-431, A431, 10 μM, 48 or 72 h, read-out: inhibition of cell growth, A431
Protocol: as §1, §2

[3] = tested on: A549 (lung adenocarcinoma); test: MTT antiproliferative assay, A549; settings: Homo sapiens, A549, 10 μM, 48 or 72 h, read-out: inhibition of cell growth, A549
Protocol: as §1, §2

[4] = tested on: SW620 (colon cancer); test: MTT antiproliferative assay, SW620; settings: Homo sapiens, SW-620, SW620, 10 μM, 48 or 72 h, read-out: inhibition of cell growth, SW620
Protocol: as §1, §2

[5] = tested on: HeLa (ovarian cancer); test: MTT antiproliferative assay, HeLa; settings: Homo sapiens, 48 or 72 h, read-out: inhibition of cell growth, HELA
Protocol: as §1, §2

[6] = tested on: HepG2 (liver cancer); test: MTT antiproliferative assay, HepG2; settings: Homo sapiens, HepG2, 10 μM, 48 or 72 h, read-out: inhibition of cell growth, HepG2
Protocol: as §1, §2

[7] = tested on: MDA-MB-231 (breast cancer); test: MTT antiproliferative assay, MDA-MB-231; settings: Homo sapiens, MDA-MB-231, 10 μM, 48 or 72 h, read-out: inhibition of cell growth, MDA-MB-231
Protocol: as §1, §2

| Structure (SMILES) | inhibition at 10 µM [1] [%] | inhibition at 10 µM [2] [%] | inhibition at 10 µM [3] [%] | inhibition at 10 µM [4] [%] | inhibition at 10 µM [5] [%] | inhibition at 10 µM [6] [%] | inhibition at 10 µM [7] [%] |
| --- | --- | --- | --- | --- | --- | --- | --- |
| CO[C@@]1(C)C2=CC=C3[C@@](C)(CC[C@@]4(C)[C@@H]5C[C@](C)(C(=O)O)CC[C@]5(C)CC[C@]34C)C2=CC(=O)/C1=C\C#N [Compound A30, (2R,4aS,6aS,9S,10Z,12bR,14aS,14bR)-10-(cyanomethylidene)-9-methoxy-2,4a,6a,9,12b,14a-hexamethyl-11-oxo-1,2,3,4,4a,5,6,6a,9,10,11,12b,13,14,14a,14b-hexadecahydropicene-2-carboxylic acid] | 50 to 80 | ≥ 80 | 30 to 50 | ≥ 80 | ≥ 80 | ≥ 80 | ≥ 80 |
| CO[C@@]1(C)C2=CC=C3[C@@](C)(CC[C@@]4(C)[C@@H]5C[C@](C)(C(=O)O)CC[C@]5(C)CC[C@]34C)C2=CC(=O)/C1=C/C#N [Compound A31, (2R,4aS,6aS,9S,10E,12bR,14aS,14bR)-10-(cyanomethylidene)-9-methoxy-2,4a,6a,9,12b,14a-hexamethyl-11-oxo-1,2,3,4,4a,5,6,6a,9,10,11,12b,13,14,14a,14b-hexadecahydropicene-2-carboxylic acid] | 50 to 80 | 50 to 80 | 50 to 80 | ≥ 80 | ≥ 80 | 50 to 80 | ≥ 80 |
| COC(=O)[C@]1(C)CC[C@]2(C)CC[C@]3(C)C4=CC=C5C(=CC(=O)C(=O)C5(C)O)[C@]4(C)CC[C@@]3(C)[C@@H]2C1 (stereo partly drawn) [Compound A32, methyl (2R,4aS,6aS,12bR,14aS,14bR)-9-hydroxy-2,4a,6a,9,12b,14a-hexamethyl-10,11-dioxo-1,2,3,4,4a,5,6,6a,9,10,11,12b,13,14,14a,14b-hexadecahydropicene-2-carboxylate] | 50 to 80 | ≥ 80 | ≥ 80 | ≥ 80 | ≥ 80 | ≥ 80 | ≥ 80 |
| COC(=O)[C@]1(C)CC[C@]2(C)CC[C@]3(C)C4=CC=C5C(=CC(=O)/C(=C\C#N)C5(C)O)[C@]4(C)CC[C@@]3(C)[C@@H]2C1 (stereo partly drawn) [Compound A33, methyl (2R,4aS,6aS,10Z,12bR,14aS,14bR)-10-(cyanomethylidene)-9-hydroxy-2,4a,6a,9,12b,14a-hexamethyl-11-oxo-1,2,3,4,4a,5,6,6a,9,10,11,12b,13,14,14a,14b-hexadecahydropicene-2-carboxylate] | 50 to 80 | 50 to 80 | 30 to 50 | ≥ 80 | ≥ 80 | ≥ 80 | ≥ 80 |
| COC(=O)[C@]1(C)CC[C@]2(C)CC[C@]3(C)C4=CC=C5C(=CC(=O)/C(=C/C#N)C5(C)O)[C@]4(C)CC[C@@]3(C)[C@@H]2C1 (stereo partly drawn) [Compound A34, methyl (2R,4aS,6aS,10E,12bR,14aS,14bR)-10-(cyanomethylidene)-9-hydroxy-2,4a,6a,9,12b,14a-hexamethyl-11-oxo-1,2,3,4,4a,5,6,6a,9,10,11,12b,13,14,14a,14b-hexadecahydropicene-2-carboxylate] | 50 to 80 | 50 to 80 | 50 to 80 | ≥ 80 | ≥ 80 | ≥ 80 | ≥ 80 |
| COC(=O)[C@]1(C)CC[C@]2(C)CC[C@]3(C)C4=CC=C5C(=CC(=O)C(O)C5(C)O)[C@]4(C)CC[C@@]3(C)[C@@H]2C1 (stereo partly drawn) [Compound A35, methyl (2R,4aS,6aS,12bR,14aS,14bR)-9,10-dihydroxy-2,4a,6a,9,12b,14a-hexamethyl-11-oxo-1,2,3,4,4a,5,6,6a,9,10,11,12b,13,14,14a,14b-hexadecahydropicene-2-carboxylate] | 50 to 80 | ≥ 80 | ≥ 80 | ≥ 80 | ≥ 80 | ≥ 80 | ≥ 80 |
| COC(=O)[C@]1(C)CC[C@]2(C)CC[C@]3(C)C4=CC=C5C(=C/C(=C\C#N)C(=O)C5(C)O)[C@]4(C)CC[C@@]3(C)[C@@H]2C1 (stereo partly drawn) [Compound A37, methyl (2R,4aS,6aS,11E,12bR,14aS,14bR)-11-(cyanomethylidene)-9-hydroxy-2,4a,6a,9,12b,14a-hexamethyl-10-oxo-1,2,3,4,4a,5,6,6a,9,10,11,12b,13,14,14a,14b-hexadecahydropicene-2-carboxylate] | 30 to 50 | ≥ 80 | < 30 | 50 to 80 | ≥ 80 | 30 to 50 | ≥ 80 |
| CC12OCCOC1(O)C(=O)C=C1C2=CC=C2[C@@]1(C)CC[C@@]1(C)[C@@H]3C[C@](C)(C(=O)O)CC[C@]3(C)CC[C@]21C (stereo partly drawn) [Compound A43, (6bS,8aS,11R,12aR,12bS,14aR)-16a-hydroxy-4a,6b,8a,11,12b,14a-hexamethyl-16-oxo-2,3,4a,6b,7,8,8a,9,10,11,12,12a,12b,13,14,14a,16,16a-octadecahydropiceno[3,4-b][1,4]dioxine-11-carboxylic acid] | < 30 | < 30 | < 30 | < 30 | < 30 | < 30 | < 30 |
| CO[C@]1(C)C(=O)C(=O)C=C2C1=CC=C1[C@@]2(C)CC[C@@]2(C)[C@@H]3C[C@](C)(C(=O)NCCO)CC[C@]3(C)CC[C@]12C [Compound A44, (2R,4aS,6aS,9S,12bR,14aS,14bR)—N-(2-hydroxyethyl)-9-methoxy-2,4a,6a,9,12b,14a-hexamethyl-10,11-dioxo-1,2,3,4,4a,5,6,6a,9,10,11,12b,13,14,14a,14b-hexadecahydropicene-2-carboxamide] | 30 to 50 | ≥ 80 | ≥ 80 | 50 to 80 | ≥ 80 | ≥ 80 | ≥ 80 |
| CO[C@]1(C)C(=O)C(=O)C=C2C1=CC=C1[C@@]2(C)CC[C@@]2(C)[C@@H]3C[C@](C)(C(=O)NO)CC[C@]3(C)CC[C@]12C [Compound A45, (2R,4aS,6aS,9S,12bR,14aS,14bR)—N-Hydroxy-9-methoxy-2,4a,6a,9,12b,14a-hexamethyl-10,11-dioxo-1,2,3,4,4a,5,6,6a,9,10,11,12b,13,14,14a,14b-hexadecahydropicene-2-carboxamide] | 50 to 80 | ≥ 80 | ≥ 80 | 50 to 80 | ≥ 80 | ≥ 80 | ≥ 80 |
| CO[C@@]1(C)C2=CC=C3[C@@](C)(CC[C@@]4(C)[C@@H]5C[C@](C)(C(=O)O)CC[C@]5(C)CC[C@]34C)C2=CC2(O)OCCN=C21 (stereo partly drawn) [Compound A46, (2R,4aS,6aS,9S,14bR,16aS,16bR)-13a-hydroxy-9-methoxy-2,4a,6a,9,14b,16a-hexamethyl-2,3,4,4a,5,6,6a,9,11,12,13a,14b,15,16,16a,16b-hexadecahydro-1H-piceno[2,3-b][1,4]oxazine-2-carboxylic acid] | 30 to 50 | ≥ 80 | 50 to 80 | 50 to 80 | ≥ 80 | ≥ 80 | 50 to 80 |
| CO[C@@]1(C)C2=CC=C3[C@@](C)(CC[C@@]4(C)[C@@H]5C[C@](C)(C(=O)NO)CC[C@]5(C)CC[C@]34C)C2=CC2(O)OCCN=C21 (stereo partly drawn) [Compound A47, (2R,4aS,6aS,9S,14bR,16aS,16bR)—N,13a-dihydroxy-9-methoxy-2,4a,6a,9,14b,16a-hexamethyl-2,3,4,4a,5,6,6a,9,11,12,13a,14b,15,16,16a,16b-hexadecahydro-1H-piceno[2,3-b][1,4]oxazine-2-carboxamide] | 30 to 50 | ≥ 80 | ≥ 80 | 50 to 80 | ≥ 80 | ≥ 80 | ≥ 80 |

— patent US12570687B2, “Triterpenoid compounds, pharmaceutical compositions thereof, and their use for treating a nuclear receptor subfamily 4 group a member 1-mediated disease” (NUCMITO PHARMACEUTICALS COMPANY LIMITED, priority 2019, dated 2026)
